# Patent US20240217951A1, “PCSK9 INHIBITORS AND METHODS OF USE THEREOF” (AstraZeneca AB, priority 2022, published 2024)
# Columns and labels:
# [1] = molecular target: GSK3β (Glycogen synthase kinase-3 beta) (Homo sapiens, UniProt P49841); assay: Assay 6 - GSK3β assay (ThermoFisher Z-Lyte); assay type: biochemical; conditions: geometric mean; ATP Conc: 10 μM; read-out: Assay 6 (GSK3β FRET-Z-Lyte CR) GMean IC50 (μM) ATP Conc: 10
# Method: Assay 6—GSK3β Assay (ThermoFisher Assay)
# This assay measures the activity of the compounds at GSK3β (Glycogen synthase kinase-3 beta).
# The test compounds were screened in 1% DMSO (final) in the well. For 10 point titrations, 3-fold serial dilutions are conducted from the starting concentration of 10 μM.
# Bar-coded Corning, low volume NBS, black 384-well plate • 1. 2.5 μL—4× Test Compound or 100 nL 100× plus 2.4 μL kinase buffer • 2. 5 μL—2× Peptide/Kinase Mixture • 3. 2.5 μL—4×ATP Solution • 4. 30-second plate shake • 5. 60-minute Kinase Reaction incubation at room temperature • 6. 5 μL—Development Reagent Solution • 7. 30-second plate shake • 8. 60-minute Development Reaction incubation at room temperature • 9. Read on fluorescence plate reader and analyse the data
# In step 2, the 2×GSK3β (GSK3 beta)/Ser/Thr (Glycogen synthase kinase-3 beta/Serine/Threonine) 09 mixture is prepared in 50 mM HEPES (4-(2-hydroxyethyl)-1-piperazineethanesulfonic acid) pH 7.5, 0.01% BRIJ-35, 10 mM MgCl2, 1 mM EGTA (egtazic acid). The final 10 μL Kinase Reaction consists of 0.22-0.92 ng GSK3β (GSK3 beta) and 2 μM Ser/Thr 09 in 50 mM HEPES pH 7.5, 0.01% BRIJ-35, 10 mM MgCl2, 1 mM EGTA.
# In step 3 the ATP Solution is diluted to a 4× working concentration in Kinase Buffer (50 mM HEPES pH 7.5, 0.01% BRIJ-35, 10 mM MgCl2, 1 mM EGTA).
# In Step 6 the Development Reagent is diluted 1:512 in Development Buffer (10× Novel PKC Lipid Mix: 2 mg/mL Phosphatidyl Serine, 0.2 mg/mL DAG in 20 mM HEPES, pH 7.4, 0.3% CHAPS).
# SelectScreen® Kinase Profiling Service uses XLfit from IDBS. The dose response curve is curve fit to model number 205 (sigmoidal dose-response model).
# [2] = molecular target: T1, potassium ion channel hERG (human Ether-á-go-go-Related Gene) (Homo sapiens, UniProt Q12809); assay: Assay 5 - hERG assay (SyncroPatch 384PE patch clamp, CHO cells); assay type: cell-based; conditions: geometric mean; CHO cells over-expressing hERG; read-out: Assay 5 (hERG Hu CHO IF EPh CR-Syncro) GMean IC50
# T1 construct: expressed in transfected cells; host or cells: Chinese hamster ovary K1 (CHO)
# T1 sequence (Q12809 whole entry): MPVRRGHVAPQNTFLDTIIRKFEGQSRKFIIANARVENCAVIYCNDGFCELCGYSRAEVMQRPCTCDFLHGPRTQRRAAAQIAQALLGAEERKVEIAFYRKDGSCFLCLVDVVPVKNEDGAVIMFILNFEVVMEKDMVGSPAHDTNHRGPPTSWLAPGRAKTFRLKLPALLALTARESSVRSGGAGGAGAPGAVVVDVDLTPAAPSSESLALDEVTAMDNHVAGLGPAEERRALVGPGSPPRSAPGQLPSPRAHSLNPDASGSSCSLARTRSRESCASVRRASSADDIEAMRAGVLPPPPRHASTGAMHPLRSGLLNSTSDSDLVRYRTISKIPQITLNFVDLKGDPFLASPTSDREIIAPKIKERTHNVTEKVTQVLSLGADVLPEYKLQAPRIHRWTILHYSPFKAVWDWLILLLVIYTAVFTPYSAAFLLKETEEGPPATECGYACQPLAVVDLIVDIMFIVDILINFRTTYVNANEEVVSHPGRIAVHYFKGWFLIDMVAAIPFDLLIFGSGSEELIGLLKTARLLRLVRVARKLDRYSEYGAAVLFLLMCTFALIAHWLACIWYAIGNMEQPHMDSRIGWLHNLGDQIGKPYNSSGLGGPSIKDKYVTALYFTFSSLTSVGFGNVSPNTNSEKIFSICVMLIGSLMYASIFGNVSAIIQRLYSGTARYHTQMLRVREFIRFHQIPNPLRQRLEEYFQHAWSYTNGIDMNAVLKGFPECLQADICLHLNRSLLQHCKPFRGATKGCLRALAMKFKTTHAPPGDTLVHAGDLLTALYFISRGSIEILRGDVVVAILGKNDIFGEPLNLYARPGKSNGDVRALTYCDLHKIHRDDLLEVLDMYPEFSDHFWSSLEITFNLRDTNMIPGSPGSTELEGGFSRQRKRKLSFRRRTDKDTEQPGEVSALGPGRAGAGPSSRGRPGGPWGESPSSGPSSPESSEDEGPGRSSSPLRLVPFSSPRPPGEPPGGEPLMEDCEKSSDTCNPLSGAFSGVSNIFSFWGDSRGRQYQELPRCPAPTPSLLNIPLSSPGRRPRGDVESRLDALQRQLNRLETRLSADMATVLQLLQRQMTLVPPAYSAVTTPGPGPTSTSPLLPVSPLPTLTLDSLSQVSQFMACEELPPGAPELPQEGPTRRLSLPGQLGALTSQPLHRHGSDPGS
# Method: Assay 5—hERG Assay (Human Ether-á-go-go-Related Gene)
# This assay (human Ether-á-go-go-Related Gene) measures activity of the compounds at the potassium ion channel hERG (human Ether-á-go-go-Related Gene).
# Experiments were performed on the SyncroPatch 384PE high throughput patch clamp platform at room temperature and medium resistance chips with 4 patch holes per site. Chinese hamster ovary K1 (CHO) cell lines over-expressing the ion channel of choice (hERG) were used in assay-ready format and kept in liquid nitrogen or were used from live culture. Cells were either thawed and diluted in HBSS or were detached from flasks and resuspended in HBSS. HBSS comprised 140 mM NaCl, 4 mM KCl, 10 mM HEPES and 5 mM Glucose (pH7.4). The internal patch clamp solution was KF 120 mM, KCl 20 mM, HEPES 10 mM, EGTA 10 mM, and 25 PM Escin (pH 7.2). After the sealing process was complete, the external solution was exchanged for external patch clamp solution comprising NaCl 80 mM, KCl 4 mM, HEPES 10 mM, CaCl2 2 mM, MgCl2 1 mM, glucose 5 mM, and NMDG 60 mM (pH 7.4). All solutions were stored at room temperature, except Escin, which was stored at 4° C. All test compounds were dispensed in greiner-bio 384 well plates and tested in a 6 point cumulative assay (final DMSO concentration 0.33%). Only wells that passed previously agreed acceptance criteria for this platform were used in this analysis (30 MegaOhm seal resistance, Z prime >0.4 and current size >0.2 nA).
# PCSK9 = PCSK9 (Homo sapiens, UniProt Q8NBP7, G670E/V474I); assay: biochemical
# Sequence of PCSK9 (Q8NBP7 with tags, fused parts or gaps V474I/G670E): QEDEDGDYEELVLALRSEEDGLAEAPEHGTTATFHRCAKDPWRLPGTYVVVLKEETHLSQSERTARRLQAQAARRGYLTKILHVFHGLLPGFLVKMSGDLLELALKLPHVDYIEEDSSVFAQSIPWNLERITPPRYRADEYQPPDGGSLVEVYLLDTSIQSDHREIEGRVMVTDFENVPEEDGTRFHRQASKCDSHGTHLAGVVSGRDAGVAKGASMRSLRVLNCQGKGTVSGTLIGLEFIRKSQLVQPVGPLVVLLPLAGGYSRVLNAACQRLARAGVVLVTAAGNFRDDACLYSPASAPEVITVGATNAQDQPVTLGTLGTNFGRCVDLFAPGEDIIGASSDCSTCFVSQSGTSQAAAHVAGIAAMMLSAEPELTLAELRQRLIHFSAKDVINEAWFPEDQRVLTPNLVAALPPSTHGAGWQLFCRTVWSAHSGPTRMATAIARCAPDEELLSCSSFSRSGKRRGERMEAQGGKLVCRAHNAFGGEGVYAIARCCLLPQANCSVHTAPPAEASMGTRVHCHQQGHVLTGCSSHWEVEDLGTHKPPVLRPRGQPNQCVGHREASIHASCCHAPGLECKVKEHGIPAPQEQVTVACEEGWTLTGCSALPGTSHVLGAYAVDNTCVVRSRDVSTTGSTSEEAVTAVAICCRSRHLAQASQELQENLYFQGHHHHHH
# Sequence of GSK3β (Glycogen synthase kinase-3 beta) (P49841 whole entry): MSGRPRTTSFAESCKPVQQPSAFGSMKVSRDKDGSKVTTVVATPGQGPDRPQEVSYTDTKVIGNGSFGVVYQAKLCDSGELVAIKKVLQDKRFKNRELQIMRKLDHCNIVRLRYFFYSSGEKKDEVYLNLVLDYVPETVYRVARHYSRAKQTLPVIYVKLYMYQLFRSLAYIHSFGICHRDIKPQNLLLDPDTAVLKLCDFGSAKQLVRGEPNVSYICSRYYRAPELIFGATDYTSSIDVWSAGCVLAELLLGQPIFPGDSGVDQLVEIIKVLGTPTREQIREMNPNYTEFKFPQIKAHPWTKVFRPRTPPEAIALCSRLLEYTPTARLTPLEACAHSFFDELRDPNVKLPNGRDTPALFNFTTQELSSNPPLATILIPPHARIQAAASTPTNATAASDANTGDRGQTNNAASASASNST
Compound,IC50 [1],IC50 [2],IC50 (PCSK9)
"COc1cccn(-c2ccc(N[C@H]3CC[C@H](Nc4cnc(C)cn4)C3)nc2)c1=O (single isomer, unassigned) [Example 171]",2.1 µM,> 40.1 µM,0.602 µM
"CNC(=O)c1cnc(N[C@H]2CC[C@H](Nc3ccc(-n4cccc(OC)c4=O)cn3)C2)cn1 (stereo in doubt) [Example 150, 5-(((1S,3S)-3-((3-Methoxy-2-oxo-2H-[1,3′-bipyridin]-6′-yl)amino)cyclopentyl)amino)-N-methylpyrazine-2-carboxamide]",> 10 µM,> 40.1 µM,8.7 µM
"Cn1ccc2nc(N[C@H]3CC[C@H](Nc4ccc(-n5ccccc5=O)cn4)C3)cnc21 [Example 7, 6′-(((1S,3S)-3-((5-Methyl-5H-pyrrolo[2,3-b]pyrazin-2-yl)amino)cyclopentyl)amino)-2H-[1,3′-bipyridin]-2-one]",> 10 µM,> 40 µM,3.5 µM
"Cn1ccc2ncc(N[C@H]3CC[C@H](Nc4ccc(-n5ccccc5=O)cn4)C3)nc21 [Example 8, 6′-(((1S,3S)-3-((5-Methyl-5H-pyrrolo[2,3-b]pyrazin-3-yl)amino)cyclopentyl)amino)-2H-[1,3′-bipyridin]-2-one]",> 10 µM,> 40 µM,0.257 µM
"Cn1ncc2ncc(N[C@H]3CC[C@H](Nc4ccc(-n5ccccc5=O)cn4)C3)nc21 [Example 9, 6′-(((1S,3S)-3-((1-Methyl-1H-pyrazolo[3,4-b]pyrazin-6-yl)amino)cyclopentyl)amino)-2H-[1,3′-bipyridin]-2-one]",5.6 µM,> 40 µM,0.677 µM
"COc1ccc(=O)n(-c2ccc(N[C@H]3CC[C@H](Nc4cnc(C)c(C)n4)C3)nc2)c1 [Example 15, 6′-(((1S,3S)-3-((5,6-Dimethylpyrazin-2-yl)amino)cyclopentyl)amino)-5-methoxy-2H-[1,3′-bipyridin]-2-one]",0.874 µM,> 40 µM,0.118 µM
"Cc1ncc(N[C@H]2CC[C@H](Nc3ccc(N4CC(=O)N(C)C4=O)cn3)C2)nc1C [Example 16, 1-(6-(((1S,3S)-3-((5,6-Dimethylpyrazin-2-yl)amino)cyclopentyl)amino)pyridin-3-yl)-3-methylimidazolidine-2,4-dione]",> 10 µM,> 40 µM,0.103 µM
"Cc1ncc(N[C@H]2CC[C@H](Nc3ccc(-n4cc(Cl)ccc4=O)cn3)C2)nc1C [Example 17, 5-Chloro-6′-(((1S,3S)-3-((5,6-dimethylpyrazin-2-yl)amino)cyclopentyl)amino)-2H-[1,3′-bipyridin]-2-one]",> 10 µM,> 40 µM,0.053 µM
"O=c1cccnn1-c1ccc(N[C@H]2CC[C@H](Nc3cnc(Cl)cn3)C2)nc1 [Example 25, 2-(6-(((1S,3S)-3-((5-Chloropyrazin-2-yl)amino)cyclopentyl)amino)pyridin-3-yl)pyridazin-3 (2H)-one]",> 10 µM,> 40 µM,0.028 µM
"CN1C(=O)CN(c2ccc(N[C@H]3CC[C@H](Nc4cnc(Cl)cn4)C3)nc2)C1=O [Example 26, 1-(6-(((1S,3S)-3-((5-Chloropyrazin-2-yl)amino)cyclopentyl)amino)pyridin-3-yl)-3-methylimidazolidine-2,4-dione]",> 10 µM,14.3 µM,0.0243 µM
"COc1ccc(=O)n(-c2ccc(N[C@H]3CC[C@H](Nc4cnc(Cl)cn4)C3)nc2)c1 [Example 28, 6′-(((1S,3S)-3-((5-Chloropyrazin-2-yl)amino)cyclopentyl)amino)-5-methoxy-2H-[1,3′-bipyridin]-2-one]",0.16 µM,25 µM,0.043 µM
"O=c1ccc(Cl)cn1-c1ccc(N[C@H]2CC[C@H](Nc3cnc(Cl)cn3)C2)nc1 [Example 29, 5-Chloro-6′-(((1S,3S)-3-((5-chloropyrazin-2-yl)amino)cyclopentyl)amino)-2H-[1,3′-bipyridin]-2-one]",> 10 µM,11.1 µM,0.014 µM
"Cc1ccc(=O)n(-c2ccc(N[C@H]3CC[C@H](Nc4cnc(Cl)cn4)C3)nc2)c1 [Example 30, 6′-(((1S,3S)-3-((5-Chloropyrazin-2-yl)amino)cyclopentyl)amino)-5-methyl-2H-[1,3′-bipyridin]-2-one]",> 10 µM,32.2 µM,0.027 µM
"COc1ccc(=O)n(-c2ccc(N[C@H]3CC[C@H](Nc4cnc(C)cn4)C3)nc2)c1 [Example 40, 5-Methoxy-6′-(((1S,3S)-3-((5-methylpyrazin-2-yl)amino)cyclopentyl)amino)-2H-[1,3′-bipyridin]-2-one]",0.192 µM,35.5 µM,0.067 µM
"Cc1cnc(N[C@H]2CC[C@H](Nc3ccc(N4C(=O)CN(C)C4=O)cn3)C2)cn1 [Example 41, 1-Methyl-3-(6-(((1S,3S)-3-((5-methylpyrazin-2-yl)amino)cyclopentyl)amino)pyridin-3-yl)imidazolidine-2,4-dione]",> 10 µM,> 40 µM,0.057 µM
"Cc1ncc(N[C@H]2CC[C@H](Nc3ccc(-n4cc(C#N)ccc4=O)cn3)C2)nc1C [Example 48, 6′-(((1S,3S)-3-((5,6-Dimethylpyrazin-2-yl)amino)cyclopentyl)amino)-2-oxo-2H-[1,3′-bipyridine]-5-carbonitrile]",> 10 µM,18.4 µM,0.113 µM
"Cc1cnc(N[C@H]2CC[C@H](Nc3ccc(-n4cc(C#N)ccc4=O)cn3)C2)cn1 [Example 49, 6′-(((1S,3S)-3-((5-Methylpyrazin-2-yl)amino)cyclopentyl)amino)-2-oxo-2H-[1,3′-bipyridine]-5-carbonitrile]",> 10 µM,> 40 µM,0.058 µM
"O=C1CC[C@H](CO)N1c1ccc(N[C@H]2CC[C@H](Nc3cnc(OC(F)F)cn3)C2)nc1 [Example 77, (R)-1-(6-(((1S,3S)-3-((5-(Difluoromethoxy)pyrazin-2-yl)amino)cyclopentyl)amino)pyridin-3-yl)-5-(hydroxymethyl)pyrrolidin-2-one]",> 10 µM,> 40 µM,1.53 µM
"O=C1[C@@H]2OCC[C@@H]2CCN1c1ccc(N[C@H]2CC[C@H](Nc3cnc(OC(F)F)cn3)C2)nc1 [Example 78, (3aS,7aR)-6-(6-(((1S,3S)-3-((5-(Difluoromethoxy)pyrazin-2-yl)amino)cyclopentyl)amino)pyridin-3-yl)hexahydrofuro[2,3-c]pyridin-7(4H)-one]",> 10 µM,> 40 µM,1.63 µM
"COc1ccc(=O)n(-c2ccc(N[C@H]3CC[C@H](Nc4cnc(C5CC5)cn4)C3)nc2)c1 [Example 107, 6′-(((1S,3S)-3-((5-Cyclopropylpyrazin-2-yl)amino)cyclopentyl)amino)-5-methoxy-2H-[1,3′-bipyridin]-2-one]",0.16 µM,,0.105 µM
"Cc1cnc(N[C@H]2CC[C@H](Nc3ccc(-n4cccc(-c5cnn(C)c5)c4=O)cn3)C2)cn1 [Example 203, 3-(1-Methyl-1H-pyrazol-4-yl)-6′-(((1S,3S)-3-((5-methylpyrazin-2-yl)amino)cyclopentyl)amino)-2H-[1,3′-bipyridin]-2-one]",> 10 µM,> 40.1 µM,
